From patent publication US5344841A, “Bis-(hydroxylakylamino)-anthraquinone inhibitors of protein kinase C” (Sphinx Pharmaceuticals Corporation, priority 1992, dated 1994)

Experiments:
P388 murine leukemia = assay: P388 leukemia tumor assay in mice, survival time; type: in vivo, mouse; settings: for % T/C p388 Leukemia: survival time
Source text: P388 Leukemia Tumors. Mice were young adult, pathogen-free, BALA/c×DBA/2 F1 (i.e., CD2F1) females purchased from Charles River Laboratories. The tumor line was the P388 murine leukemia, ascites form, obtained from the National Cancer Institute (NCI) Tumor Repository (Frederick, Md.). The tumor was maintained in the serial passage in mice by periodic intraperitoneal (ip) implantation. For this experiment, 10^6 hemacytometer-counted P388 murine leukemia cells were implanted ip into mice on Day 0. The mice were randomized into one untreated control group of 20 and 15 test groups of six mice each. All drug treatment was delivered ip on the basis of the average body weight of each group. […] Body weights were recorded on Days 1, 5, 9, 11, and 18. Deaths were recorded daily. Dying mice were necropsied, and the presence or absence of ascites or splenomegaly was recorded. Drug effectiveness was assessed on the basis of the survival time. Results were expressed as a percentage of the control survival time (Survival Time=T/C×100%; T=test animals; C=control animals). The criterion for effectiveness was determined by: T/C×100≥125 percent.

[1] = test system: 8226/ADR adriamycin resistant line of 8226 cells; assay: Human tumor growth inhibition, 3H-thymidine incorporation, 8226/ADR; type: cell-based; settings: 8226/ADR vs 8226
Source text: (§1) MCF-7 a human breast tumor cell line, and MCF-7/ADR an adriamycin resistant line of MCF-7 cells were obtained from the National Cancer Institute, Frederick, Md. NHEK a human keratinocyte cell line was obtained from Clonetic Corp., San Diego, Calif. 8226 a human myeloma cell line, 8226/MT a Mitoxantrone resistant line of 8226 cells, and 8226 ADR an adriamycin resistant line of 8226 cells were obtained from Dr. Bill Dalton, Arizona Cancer Center, Tuscon, Ariz.
(§2) Human tumor cells are trypsinized (0.05% trypsin, GIBCO), counted with a hemacytometer and seeded at a concentration of 10,000 cells/well in a 96 well microtiter plate. After allowing cells to attach to the surface overnight, the culture medium is aspirated and replaced with 100 μl of fresh medium. Test agents are diluted to determine dose response at 2× final concentration and added in quadruplicate at 100 μl/well to bring the total volume of each well to 200 μl. The microtiter plate is then incubated at 37° C. 5% CO2 overnight (18-24 hrs) before ^3 H-thymidine is added at a concentration of 0.5 μCi/well in 50 μl culture medium. The plate is incubated again for 4 hrs under the same conditions as above. Supernatant is then aspirated and 50 μl trypsin (0.05%, GIBCO) is added to each well. Cells are checked microscopically to determine detachment from surfaces, and plates are then harvested with a cell harvester (PHD, Cambridge Technology, Inc.) Filter papers corresponding to wells are placed in scintillation vials and counted to determine the amount of ^3 H-thymidine incorporated by the cells. Test agent response is compared to a positive control of cell wells with culture media only to determine the IC50. IC50 is the concentration of test compound required to inhibit fifty percent of the incorporation of ^3 H-thymidine into proliferating cells not exposed to test agent. Uptake of ^3 H-thymidine is a standard test for measuring the metabolism of cells. Cells which are actively proliferating take up ^3 H-thymidine, whereas cells that are not proliferating take up ^3 H-thymidine at much slower rates or not at all. Test agents that inhibit the uptake of ^3 H-thymidine thus slow the growth of cells.

NHEK human keratinocytes = assay: Human keratinocyte inhibition, 3H-thymidine incorporation; type: cell-based
Experimental: Human tumor cells are trypsinized (0.05% trypsin, GIBCO), counted with a hemacytometer and seeded at a concentration of 10,000 cells/well in a 96 well microtiter plate. After allowing cells to attach to the surface overnight, the culture medium is aspirated and replaced with 100 μl of fresh medium. Test agents are diluted to determine dose response at 2× final concentration and added in quadruplicate at 100 μl/well to bring the total volume of each well to 200 μl. The microtiter plate is then incubated at 37° C. 5% CO2 overnight (18-24 hrs) before ^3 H-thymidine is added at a concentration of 0.5 μCi/well in 50 μl culture medium. The plate is incubated again for 4 hrs under the same conditions as above. […] Cells are checked microscopically to determine detachment from surfaces, and plates are then harvested with a cell harvester (PHD, Cambridge Technology, Inc.) Filter papers corresponding to wells are placed in scintillation vials and counted to determine the amount of ^3 H-thymidine incorporated by the cells. […]
Proliferating keratinocytes (NHEK cells purchased from Clonetics, Inc. San Diego, Calif.) in second passage were grown in Keratinocyte Growth Medium (KGM) (Clonetics, Inc.) Cells were trypsinized with 0.025% trypsin (Clonetics), counted with a hemacytometer (Scientific Products), and seeded at a concentration of 2,500 cells/well in a 96 well microtiter plate. […]

[2] = test system: 8226/ADR adriamycin resistant line of 8226 cells; assay: Human tumor growth inhibition, 3H-thymidine incorporation, 8226/ADR; type: cell-based; settings: 3H-thymidine uptake
[3] = test system: 8226/MT Mitoxantrone resistant line of 8226 cells; assay: Human tumor growth inhibition, 3H-thymidine incorporation, 8226/MT
[4] = test system: MCF-7/ADR adriamycin resistant line of MCF-7 cells; assay: Human tumor growth inhibition, 3H-thymidine incorporation, MCF-7/ADR; type: cell-based; settings: NCI/ADR-RES, 3H-thymidine uptake
Melanotic Melanoma B16 = assay: Melanotic melanoma B16 test in mice, survival time; type: in vivo, mouse; settings: 100 mg/kg ip once daily for nine days
Experimental: Melanotic Melanoma B16 Test. The animals used were B6 C3 F1 mice, all of one sex, weighing a minimum of 18 g for males and 17 g for females and all within a 4 g weight range at the start of the test. The test group comprised 9 or 10 mice. The tumor was implanted in each of the test mice by the subcutaneous injection of 0.5 ml of a tumor homogenate prepared by homogenizing a 1 g portion of melanotic melanoma in 10 ml of cold physiological saline. Compound 1a-1 suspended in hydroypropylcellulose was administered intraperitoneally at a dose of 100 mg/kg once daily for nine consecutive days staring on Day 1 relative to the day of tumor inoculation (Day 0). The control mice received injections of hydroxyproplcellulose vehicle only. The mice were weighed and survivors were recorded on a regular basis for sixty days. The median survival times and the ratio of the median survival times for treated (T) to control (C) mice were calculated. The median survival time of the nontreated rumored mice ranged from 15 to 17 days. Drug effectiveness was assessed on the basis of survival time. Results were expressed as a percentage of the control survival time (Survival Time T/C×100%; T=test animals; C=control animals). The criterion for effectiveness was determined by T/C×100≥125 percent.

[5] = test system: MCF-7/ADR adriamycin resistant line of MCF-7 cells; assay: Human tumor growth inhibition, 3H-thymidine incorporation, MCF-7/ADR; type: cell-based; settings: MCF-7/ADR vs MCF-7
Source text: as §1, §2

[6] = test system: 8226 human myeloma cell line; assay: Human tumor growth inhibition, 3H-thymidine incorporation, 8226; type: cell-based; settings: 3H-thymidine uptake, read-out: IC50 8226
Source text: as §1, §2

[7] = test system: MCF-7 human breast tumor cell line; assay: Human tumor growth inhibition, 3H-thymidine incorporation, MCF-7; type: cell-based; settings: 3H-thymidine uptake; read-out: IC50 MCF-7
Source text: as §1, §2

**Q.** Which results are given for `CCN(CC)CC(O)CNc1ccc(NCC(O)CCl)c2c1C(=O)c1ccccc1C2=O` (stereo not drawn) [Compound 1a-1]?
**A.** % T/C p388 Leukemia (P388 murine leukemia; 67 mg/kg, Q1D × 9, ip): 140%; % T/C p388 Leukemia (P388 murine leukemia; 150 mg/kg Q1D × 9, ip): 130%; survival time of mice (in words) (P388 murine leukemia; all dosages and schedules): effectively increased the survival time; Resistance Ratio (8226/ADR) [1]: 0.08; IC50 (NHEK human keratinocytes): 160 nM; IC50 [2]: 80 nM; Resistance Ratio (8226/MT) ([3]; 8226/MT vs 8226): 0.24; IC50 ([3]; Homo sapiens, read-out: IC50 8226/MT): 240 nM; ratio of IC50 for 8226 cells to IC50 for 8226/MT cells ([3]; text wording of ratio): 0.24; IC50 [4]: 500 nM; % T/C (B16 median survival time) (Melanotic Melanoma B16): 129%; effect on survival time of mice (in words) (Melanotic Melanoma B16): effective for increasing survival time of the mice; Resistance Ratio (IC50 MCF-7/ADR to IC50 MCF-7) [5]: 2; IC50 [6]: 1000 nM; IC50 [7]: 250 nM
